Results as given in ChEMBL document CHEMBL1125963, “Triply-convergent synthesis of a homochiral 3,3-dimethyl, 15-cyclohexyl prostacyclin analog” (Bioorg Med Chem Lett, 1991).

How the values were obtained:
[1] = species on record: Homo sapiens; assay: Concentration required to inhibit collagen-induced platelet aggregation by 50 % (>10 uM); IA means inactive; type: functional
[2] = species on record: Homo sapiens; assay: Concentration required to inhibit collagen-induced platelet aggregation by 50 %; type: functional

Compound | IC50 [1] | IC50 [2] [µM]
CC(C)(C/C=C1\C[C@H]2C[C@@H](O)[C@H](C#C[C@@H](O)C3CCCCC3)[C@H]2C1)CCO | Not Active | –
CC(C)(C/C=C1\C[C@H]2C[C@@H](O)[C@H](C#C[C@H](O)C3CCCCC3)[C@H]2C1)CC(=O)O | – | 0.48
CCCCC[C@H](O)/C=C/[C@@H]1[C@H]2C/C(=C/CCCC(=O)O)C[C@H]2C[C@H]1O | Not Active | –
O=C(O)COc1cccc2c1C[C@H]1C[C@@H](O)[C@H](CC[C@@H](O)C3CCCCC3)[C@H]1C2 | Not Active | –
CCC#CC[C@H](C)[C@H](O)C#C[C@@H]1[C@H]2C/C(=C/COCC(=O)O)C[C@H]2C[C@H]1O [CICAPROST] | Not Active | –
